Tests used:
Type in all cases: biochemical
TYK2 = TYK2 (Homo sapiens, UniProt P29597); experiment: TYK2 kinase inhibition (Table A1); settings: Table D1
[1] = biological target: T1, human JAK3 (a.a. 781-1124) (Homo sapiens, UniProt P52333); experiment: In vitro JAK kinase assay (HTRF, phosphorylation of a biotinylated peptide), JAK3; settings: Table D1
T1 construct: JAK3 (a.a. 781-1124); His tag (N); made in house; host or cells: insect cells (baculovirus)
Method in brief: (§1)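 Kinase reactions ran at room temperature for 1 h with ATP matched per isoform (JAK1 90 μM, JAK2 30 μM, JAK3 3 μM). After an EDTA stop, the phosphorylated biotin-peptide was read by HTRF using Eu-Py20 and SA-APC after 40 min binding.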

[2] = biological target: T2, human JAK1 (a.a. 837-1142) (Homo sapiens, UniProt P23458); experiment: In vitro JAK kinase assay (HTRF, phosphorylation of a biotinylated peptide), JAK1; settings: Table D1; read-out: JAK1 IC50
T2 construct: human JAK1 (a.a. 837-1142); His tag (N); made in house; host or cells: insect cells (baculovirus)
T2 sequence (P23458 849-1154): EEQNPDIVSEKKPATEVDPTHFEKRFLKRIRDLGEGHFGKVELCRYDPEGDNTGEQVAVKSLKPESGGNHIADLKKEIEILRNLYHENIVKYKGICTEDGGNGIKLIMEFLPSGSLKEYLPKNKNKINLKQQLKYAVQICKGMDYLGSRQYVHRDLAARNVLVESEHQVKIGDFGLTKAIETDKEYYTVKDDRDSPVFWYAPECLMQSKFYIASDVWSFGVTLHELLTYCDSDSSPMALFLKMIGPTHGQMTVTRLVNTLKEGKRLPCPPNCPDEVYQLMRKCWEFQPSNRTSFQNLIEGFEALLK
Method in brief: as §1

[3] = biological target: T3, human JAK2 (a.a. 828-1132) (Homo sapiens, UniProt O60674); experiment: In vitro JAK kinase assay (HTRF, phosphorylation of a biotinylated peptide), JAK2; settings: Table D1
T3 construct: JAK2 (a.a. 828-1132); His tag (N); made in house; host or cells: insect cells (baculovirus)
T3 sequence (O60674 828-1132): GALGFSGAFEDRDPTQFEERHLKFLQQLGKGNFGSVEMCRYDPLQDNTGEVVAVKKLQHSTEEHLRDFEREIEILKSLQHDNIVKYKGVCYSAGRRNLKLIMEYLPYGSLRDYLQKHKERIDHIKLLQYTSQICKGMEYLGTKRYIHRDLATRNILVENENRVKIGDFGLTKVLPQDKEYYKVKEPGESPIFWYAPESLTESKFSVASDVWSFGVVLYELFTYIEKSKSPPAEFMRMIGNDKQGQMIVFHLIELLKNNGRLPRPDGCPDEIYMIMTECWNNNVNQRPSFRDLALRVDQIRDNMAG
Method in brief: as §1

TYK2, sequence (P29597 whole entry): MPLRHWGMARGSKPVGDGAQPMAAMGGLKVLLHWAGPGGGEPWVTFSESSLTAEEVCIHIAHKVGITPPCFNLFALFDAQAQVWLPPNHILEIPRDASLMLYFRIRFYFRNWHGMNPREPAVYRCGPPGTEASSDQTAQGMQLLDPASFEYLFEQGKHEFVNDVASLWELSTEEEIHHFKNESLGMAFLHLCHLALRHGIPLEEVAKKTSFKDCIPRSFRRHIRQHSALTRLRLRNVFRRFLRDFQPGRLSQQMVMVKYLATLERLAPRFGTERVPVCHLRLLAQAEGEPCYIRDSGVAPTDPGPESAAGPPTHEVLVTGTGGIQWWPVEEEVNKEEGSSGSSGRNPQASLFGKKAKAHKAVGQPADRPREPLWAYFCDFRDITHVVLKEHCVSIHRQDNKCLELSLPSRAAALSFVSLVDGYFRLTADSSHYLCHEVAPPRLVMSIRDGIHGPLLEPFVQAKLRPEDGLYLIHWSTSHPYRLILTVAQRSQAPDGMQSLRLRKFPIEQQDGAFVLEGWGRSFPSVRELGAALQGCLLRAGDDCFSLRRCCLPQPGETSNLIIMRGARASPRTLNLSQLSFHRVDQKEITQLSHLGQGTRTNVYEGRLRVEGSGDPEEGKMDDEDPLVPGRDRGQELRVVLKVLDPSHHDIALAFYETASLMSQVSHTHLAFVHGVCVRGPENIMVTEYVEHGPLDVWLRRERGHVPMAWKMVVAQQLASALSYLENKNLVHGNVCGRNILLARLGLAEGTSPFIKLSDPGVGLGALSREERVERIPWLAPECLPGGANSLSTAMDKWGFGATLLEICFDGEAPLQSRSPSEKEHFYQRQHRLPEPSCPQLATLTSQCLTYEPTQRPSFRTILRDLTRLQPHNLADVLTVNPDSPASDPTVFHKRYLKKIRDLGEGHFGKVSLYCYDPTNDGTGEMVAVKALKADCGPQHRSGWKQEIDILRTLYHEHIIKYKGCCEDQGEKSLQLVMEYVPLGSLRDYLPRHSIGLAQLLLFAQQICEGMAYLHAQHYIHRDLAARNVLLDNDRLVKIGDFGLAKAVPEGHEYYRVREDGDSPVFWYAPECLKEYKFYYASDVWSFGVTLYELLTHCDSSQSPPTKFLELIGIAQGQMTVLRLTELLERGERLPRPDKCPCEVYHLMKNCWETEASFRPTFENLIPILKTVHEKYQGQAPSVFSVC
T1 sequence (P52333 781-1124): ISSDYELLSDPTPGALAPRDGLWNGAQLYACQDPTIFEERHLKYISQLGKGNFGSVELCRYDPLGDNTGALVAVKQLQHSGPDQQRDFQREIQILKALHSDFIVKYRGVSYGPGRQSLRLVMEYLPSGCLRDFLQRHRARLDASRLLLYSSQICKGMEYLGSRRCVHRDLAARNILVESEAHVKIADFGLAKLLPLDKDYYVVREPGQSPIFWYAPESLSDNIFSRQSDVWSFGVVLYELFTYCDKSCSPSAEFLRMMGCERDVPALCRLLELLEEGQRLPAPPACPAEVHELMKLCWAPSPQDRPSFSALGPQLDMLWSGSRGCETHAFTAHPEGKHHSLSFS

| Compound | IC50 (TYK2) [µM] | IC50 [1] [µM] | IC50 [2] [µM] | IC50 [3] [µM] |
| --- | --- | --- | --- | --- |
| O=C(COc1ccc2cc1CCc1cncc(c1)Nc1ncc(Cl)c(n1)N2)N1CCN(c2ccc(F)cc2)CC1 [Example D242, 6-Chloro-12-{2-[4-(4-fluorophenyl)piperazin-1-yl]-2-oxoethoxy}-2,4,8,18,22-pentaazatetracyclo[14.3.1.1(3,7).1(9,13)]docosa-1(20),3(22),4,6,9(21),10,12,16,18-nonaene tris(trifluoroacetate)] | > 0.4 | > 0.4 | 0.046 | 0.159 |
| O=C(COc1ccc2cc1CCc1cncc(c1)Nc1ncc(Cl)c(n1)N2)N1CCN(c2ccncc2)CC1 [Example D243, 6-Chloro-12-[2-oxo-2-(4-pyridin-4-ylpiperazin-1-yl)ethoxy]-2,4,8,18,22-pentaazatetracyclo[14.3.1.1(3,7).1(9,13)]docosa-1(20),3(22),4,6,9(21),10,12,16,18-nonaene tris(trifluoroacetate)] | 0.326 | > 0.4 | 0.06 | 0.3 |
| O=C(COc1ccc2cc1CCc1cncc(c1)Nc1ncc(Cl)c(n1)N2)N1CCN(c2cc(Cl)ccn2)CC1 [Example D244, 6-Chloro-12-{2-[4-(4-chloropyridin-2-yl)piperazin-1-yl]-2-oxoethoxy}-2,4,8,18,22-pentaazatetracyclo[14.3.1.1(3,7).1(9,13)]docosa-1(20),3(22),4,6,9(21),10,12,16,18-nonaene tris(trifluoroacetate)] | > 0.4 | > 0.4 | 0.08 | 0.358 |
| O=C(COc1ccc2cc1CCc1cncc(c1)Nc1ncc(Cl)c(n1)N2)N1CCN(c2nccc3occc23)CC1 [Example D245, 6-Chloro-12-[2-(4-furo[3,2-c]pyridin-4-ylpiperazin-1-yl)-2-oxoethoxy]-2,4,8,18,22-pentaazatetracyclo[14.3.1.1(3,7).1(9,13)]docosa-1(20),3(22),4,6,9(21),10,12,16,18-nonaene tris(trifluoroacetate)] | > 0.4 | > 0.4 | 0.075 | > 0.4 |
| Cc1ccc(N2CCN(C(=O)COc3ccc4cc3CCc3cncc(c3)Nc3ncc(Cl)c(n3)N4)CC2)nc1 [Example D246, 6-Chloro-12-{2-[4-(5-methylpyridin-2-yl)piperazin-1-yl]-2-oxoethoxy}-2,4,8,18,22-pentaazatetracyclo[14.3.1.1(3,7).1(9,13)]docosa-1(20),3(22),4,6,9(21),10,12,16,18-nonaene tris(trifluoroacetate)] | > 0.4 | > 0.4 | 0.03 | 0.226 |
| O=C(COc1ccc2cc1CCc1cncc(c1)Nc1ncc(Cl)c(n1)N2)N1CCN(c2cc(Cl)cc(Cl)n2)CC1 [Example D247, 6-Chloro-12-{2-[4-(4,6-dichloropyridin-2-yl)piperazin-1-yl]-2-oxoethoxy}-2,4,8,18,22-pentaazatetracyclo[14.3.1.1(3,7).1(9,13)]docosa-1(20),3(22),4,6,9(21),10,12,16,18-nonaene tris(trifluoroacetate)] | > 0.4 | > 0.4 | 0.082 | > 0.4 |
| O=C(COc1ccc2cc1CCc1cncc(c1)Nc1ncc(Cl)c(n1)N2)N1CCN(c2cccc(C(F)(F)F)n2)CC1 [Example D248, 6-Chloro-12-(2-oxo-2-{4-[6-(trifluoromethyl)pyridin-2-yl]piperazin-1-yl}ethoxy)-2,4,8,18,22-pentaazatetracyclo[14.3.1.1(3,7).1(9,13)]docosa-1(20),3(22),4,6,9(21),10,12,16,18-nonaene tris(trifluoroacetate)] | > 0.4 | > 0.4 | 0.059 | > 0.4 |
| COc1cccnc1N1CCN(C(=O)COc2ccc3cc2CCc2cncc(c2)Nc2ncc(Cl)c(n2)N3)CC1 [Example D249, 6-Chloro-12-{2-[4-(3-methoxypyridin-2-yl)piperazin-1-yl]-2-oxoethoxy}-2,4,8,18,22-pentaazatetracyclo[14.3.1.1(3,7).1(9,13)]docosa-1(20),3(22),4,6,9(21),10,12,16,18-nonaene tris(trifluoroacetate)] | > 0.4 | > 0.4 | 0.071 | > 0.4 |
| O=C(COc1ccc2cc1CCc1cncc(c1)Nc1ncc(Cl)c(n1)N2)N1CCN(c2noc3ccccc23)CC1 [Example D250, 12-{2-[4-(1,2-Benzisoxazol-3-yl)piperazin-1-yl]-2-oxoethoxy}-6-chloro-2,4,8,18,22-pentaazatetracyclo[14.3.1.1(3,7).1(9,13)]docosa-1(20),3(22),4,6,9(21),10,12,16,18-nonaene tris(trifluoroacetate)] | > 0.4 | > 0.4 | 0.043 | 0.049 |
| Cc1cc(C(=O)N2CCN(C(=O)COc3ccc4cc3CCc3cncc(c3)Nc3ncc(Cl)c(n3)N4)CC2)no1 [Example D251, 6-Chloro-12-(2-{4-[(5-methylisoxazol-3-yl)carbonyl]piperazin-1-yl}-2-oxoethoxy)-2,4,8,18,22-pentaazatetracyclo[14.3.1.1(3,7).1(9,13)]docosa-1(20),3(22),4,6,9(21),10,12,16,18-nonaene bis(trifluoroacetate)] | > 0.4 | > 0.4 | 0.018 | 0.017 |
| CC(=O)N1CCN(C(=O)COc2ccc3cc2CCc2cncc(c2)Nc2ncc(Cl)c(n2)N3)CC1 [Example D252, 12-[2-(4-Acetylpiperazin-1-yl)-2-oxoethoxy]-6-chloro-2,4,8,18,22-pentaazatetracyclo[14.3.1.1(3,7).1(9,13)]docosa-1(20),3(22),4,6,9(21),10,12,16,18-nonaene bis(trifluoroacetate)] | > 0.4 | > 0.4 | 0.065 | 0.244 |
| O=C(COc1ccc2cc1CCc1cncc(c1)Nc1ncc(Cl)c(n1)N2)N1CCN(S(=O)(=O)c2ccccc2F)CC1 [Example D253, 6-Chloro-12-(2-{4-[(2-fluorophenyl)sulfonyl]piperazin-1-yl}-2-oxoethoxy)-2,4,8,18,22-pentaazatetracyclo[14.3.1.1(3,7).1(9,13)]docosa-1(20),3(22),4,6,9(21),10,12,16,18-nonaene bis(trifluoroacetate)] | > 0.4 | > 0.4 | 0.035 | 0.067 |
| N#Cc1ccccc1S(=O)(=O)N1CCN(C(=O)COc2ccc3cc2CCc2cncc(c2)Nc2ncc(Cl)c(n2)N3)CC1 [Example D254, 2-{[4-({[6-Chloro-2,4,8,18,22-pentaazatetracyclo[14.3.1.1(3,7).1(9,13)]docosa-1(20),3(22),4,6,9(21),10,12,16,18-nonaen-12-yl]oxy}acetyl)piperazin-1-yl]sulfonyl}benzonitrile bis(trifluoroacetate)] | 0.356 | > 0.4 | 0.0081 | 0.049 |
| O=C(COc1ccc2cc1CCc1cncc(c1)Nc1ncc(Cl)c(n1)N2)N1CCN(Cc2cccnc2)CC1 [Example D255, 6-Chloro-12-{2-oxo-2-[4-(pyridin-3-ylmethyl)piperazin-1-yl]ethoxy}-2,4,8,18,22-pentaazatetracyclo[14.3.1.1(3,7).1(9,13)]docosa-1(20),3(22),4,6,9(21),10,12,16,18-nonaene tris(trifluoroacetate)] | > 0.4 | > 0.4 | 0.09 | 0.226 |
| O=C(COc1ccc2cc1CCc1cncc(c1)Nc1ncc(Cl)c(n1)N2)N1CCN(Cc2ccncc2)CC1 [Example D256, 6-Chloro-12-{2-oxo-2-[4-(pyridin-4-ylmethyl)piperazin-1-yl]ethoxy}-2,4,8,18,22-pentaazatetracyclo[14.3.1.1(3,7).1(9,13)]docosa-1(20),3(22),4,6,9(21),10,12,16,18-nonaene tris(trifluoroacetate)] | > 0.4 | > 0.4 | 0.15 | 0.217 |
| O=C(COc1ccc2cc1CCc1cncc(c1)Nc1ncc(Cl)c(n1)N2)N1CCC(c2cc(-c3cccs3)[nH]n2)CC1 [Example D257, 6-Chloro-12-(2-oxo-2-{4-[5-(2-thienyl)-1H-pyrazol-3-yl]piperidin-1-yl}ethoxy)-2,4,8,18,22-pentaazatetracyclo[14.3.1.1(3,7).1(9,13)]docosa-1(20),3(22),4,6,9(21),10,12,16,18-nonaene tris(trifluoroacetate)] | > 0.4 | > 0.4 | 0.063 | 0.112 |
| O=C(COc1ccc2cc1CCc1cncc(c1)Nc1ncc(Cl)c(n1)N2)N1CCC(c2nc(-c3cccs3)no2)CC1 [Example D258, 6-Chloro-12-(2-oxo-2-{4-[3-(2-thienyl)-1,2,4-oxadiazol-5-yl]piperidin-1-yl}ethoxy)-2,4,8,18,22-pentaazatetracyclo[14.3.1.1(3,7).1(9,13)]docosa-1(20),3(22),4,6,9(21),10,12,16,18-nonaene bis(trifluoroacetate)] | > 0.4 | > 0.4 | 0.07 | 0.113 |
| O=C(COc1ccc2cc1CCc1cncc(c1)Nc1ncc(Cl)c(n1)N2)N1CCN(C(=O)c2ccc(F)cc2F)CC1 [Example D259, 6-Chloro-12-{2-[4-(2,4-difluorobenzoyl)piperazin-1-yl]-2-oxoethoxy}-2,4,8,18,22-pentaazatetracyclo[14.3.1.1(3,7).1(9,13)]docosa-1(20),3(22),4,6,9(21),10,12,16,18-nonaene bis(trifluoroacetate)] | > 0.4 | > 0.4 | 0.042 | 0.037 |

Reference: patent publication US8871753B2, “Macrocyclic compounds and their use as kinase inhibitors” (Incyte Corporation, priority 2008, dated 2014)
